Reference: ChEMBL document CHEMBL2417377, “Hit-to-lead optimization and kinase selectivity of imidazo[1,2-a]quinoxalin-4-amine derived JNK1 inhibitors” (Bioorg Med Chem Lett, 2013)

How the values were obtained:
[1] = target: T1, Mitogen-activated protein kinase 8 (Homo sapiens, UniProt P45983); experiment: Inhibition of human recombinant histidine-tagged full-length JNK1 expressed in insect cells activated by GST-tagged MAP2K7 using ATF2 as substrate after 1 hr by luminescence plate reader analysis
T1 sequence (P45983 whole entry): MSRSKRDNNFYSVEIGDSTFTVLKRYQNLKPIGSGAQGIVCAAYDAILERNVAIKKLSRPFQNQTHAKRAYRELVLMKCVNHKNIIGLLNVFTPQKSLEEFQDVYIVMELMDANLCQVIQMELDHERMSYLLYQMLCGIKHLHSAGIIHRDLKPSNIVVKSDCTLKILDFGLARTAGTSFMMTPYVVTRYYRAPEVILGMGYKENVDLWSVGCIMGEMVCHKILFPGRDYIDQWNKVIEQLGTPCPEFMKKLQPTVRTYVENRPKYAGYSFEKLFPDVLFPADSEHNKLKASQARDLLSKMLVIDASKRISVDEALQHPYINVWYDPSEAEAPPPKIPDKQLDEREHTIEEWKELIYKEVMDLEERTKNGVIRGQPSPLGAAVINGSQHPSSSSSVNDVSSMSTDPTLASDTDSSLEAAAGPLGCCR

[2] = target: Mitogen-activated protein kinase 9 (Homo sapiens, UniProt P45984); experiment: Inhibition of JNK2 in human Jurkat cell lysates using desthiobiotin-tagged ATP probe AX9989 followed by trypsinization by LC/MS analysis
Chain of Mitogen-activated protein kinase 9 (P45984 whole entry): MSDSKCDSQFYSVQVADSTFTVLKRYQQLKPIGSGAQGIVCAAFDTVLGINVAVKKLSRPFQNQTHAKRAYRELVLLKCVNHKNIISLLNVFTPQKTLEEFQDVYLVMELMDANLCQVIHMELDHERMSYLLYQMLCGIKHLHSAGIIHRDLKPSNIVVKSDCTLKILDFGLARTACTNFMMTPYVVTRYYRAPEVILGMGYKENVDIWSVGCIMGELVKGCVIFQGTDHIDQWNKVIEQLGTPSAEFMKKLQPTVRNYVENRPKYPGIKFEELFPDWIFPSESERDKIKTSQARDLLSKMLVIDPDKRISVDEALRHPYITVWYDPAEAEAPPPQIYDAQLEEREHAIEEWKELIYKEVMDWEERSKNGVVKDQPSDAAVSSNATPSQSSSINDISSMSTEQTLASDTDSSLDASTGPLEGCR

[3] = target: T1, Mitogen-activated protein kinase 8; experiment: Inhibition of JNK1 in human Jurkat cell lysates using desthiobiotin-tagged ATP probe AX9989 followed by trypsinization by LC/MS analysis

Row | SMILES | IC50 [1] [µM] | IC50 [2] [µM] | IC50 [3] [µM]
1 | O=C(NCc1ccccc1)c1ccc2nc(N[C@H]3CC[C@H](O)CC3)c3nccn3c2c1 | 0.68 |  | 
2 | O[C@H]1CC[C@H](Nc2nc3ccccc3n3cccc23)CC1 | > 100 |  | 
3 | CC[C@H](NC(=O)c1ccc2nc(N[C@H]3CC[C@H](O)CC3)c3nccn3c2c1)c1ccccc1 | 1.7 |  | 
4 | O=C(NCc1ccccc1)c1ccc2c(c1)nc(N[C@H]1CC[C@H](O)CC1)c1nccn12 | 0.49 |  | 
5 | COC[C@@H](NC(=O)c1ccc2nc(N[C@H]3CC[C@H](O)CC3)c3nccn3c2c1)c1ccccc1 | 0.69 |  | 
6 | O=C(NC(c1ccccc1)c1ccccc1)c1ccc2nc(N[C@H]3CC[C@H](O)CC3)c3nccn3c2c1 | 0.36 |  | 
7 | O=C(N[C@@H](CO)c1ccccc1)c1ccc2nc(N[C@H]3CC[C@H](O)CC3)c3nccn3c2c1 | 4.9 |  | 
8 | CCC(CC)(NC(=O)c1ccc2nc(N[C@H]3CC[C@H](O)CC3)c3nccn3c2c1)c1ccccc1 | 0.16 | > 0.19 | 0.059
9 | O=C(NC1(c2ccccc2)CCCCC1)c1ccc2nc(N[C@H]3CC[C@H](O)CC3)c3nccn3c2c1 | 1.22 |  | 
10 | O=C(NC1(c2ccccc2)CCCCCC1)c1ccc2nc(N[C@H]3CC[C@H](O)CC3)c3nccn3c2c1 | 0.43 |  | 
11 | N[C@H]1CC[C@H](Nc2nc3ccccc3n3ccnc23)CC1 | 1.7 |  | 

Other lines, results leading:

Row | IC50 [1] [µM] | IC50 [2] [µM] | IC50 [3] [µM] | SMILES
12 | 73 |  |  | O[C@H]1CC[C@H](NC2=Nc3ccccc3N3CCN=C23)CC1
13 | 0.19 | > 0.19 | 0.14 | O=C(NC1(c2ccc(Cl)cc2)CC1)c1ccc2nc(N[C@H]3CC[C@H](O)CC3)c3nccn3c2c1
14 | 8 |  |  | FC1(F)CCC(Nc2nc3ccccc3n3ccnc23)CC1
15 | 1.5 |  | 0.082 | O=C(O)c1ccc2c(c1)nc(N[C@H]1CC[C@H](O)CC1)c1nccn12
16 | 4.17 |  |  | NC(=O)c1ccc2c(c1)nc(N[C@H]1CC[C@H](O)CC1)c1nccn12
17 | 0.35 |  |  | CC(C)[C@@H](NC(=O)c1ccc2nc(N[C@H]3CC[C@H](O)CC3)c3nccn3c2c1)c1ccccc1
18 | 0.18 |  |  | O=C(NC1(c2ccccc2)CCCC1)c1ccc2nc(N[C@H]3CC[C@H](O)CC3)c3nccn3c2c1
19 | 0.62 |  |  | O=C(N[C@H](CCO)c1ccccc1)c1ccc2nc(N[C@H]3CC[C@H](O)CC3)c3nccn3c2c1
20 | 1.5 |  |  | C[C@@H](NC(=O)c1ccc2c(c1)nc(N[C@H]1CC[C@H](O)CC1)c1nccn12)c1ccccc1
21 | 0.25 |  |  | Cc1ccc(C2(NC(=O)c3ccc4nc(N[C@H]5CC[C@H](O)CC5)c5nccn5c4c3)CC2)cc1
22 | 2.4 |  |  | CS(=O)(=O)N[C@H]1CC[C@H](Nc2nc3ccccc3n3ccnc23)CC1
